test system: c-Myc; assay: c-Myc immunofluorescence assay; assay type: cell-based, human; conditions: A549 cells, 24 hours, anti-c-Myc immunofluorescence
Procedure, shortened: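 A549 NSCLC cells grown 48 h, then treated 24 h with increasing compound concentrations; fixed in 4% paraformaldehyde, stained with anti-c-Myc antibody plus fluorescent secondary and DAPI. Per-cell c-Myc fluorescence quantified by high-content imaging at 20×; dose-response fitted by logistic regression to give EC50.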

Structure (SMILES)	Myc Efficacy (−LogEC50)
COc1ccc(-c2noc(N3CCC(C(=O)NC(c4ccccn4)C4CC4)CC3)n2)cc1 (centres unmarked) [Compound 280, N-(cyclopropyl(pyridin-2-yl)methyl)-1-(3-(4-methoxyphenyl)-1,2,4-oxadiazol-5-yl)piperidine-4-carboxamide]	+ (+ >3 and <5)
O=C(NCCCN1CCC(Oc2ccccc2)CC1)N1CCN(c2nc(-c3ccc(OC(F)(F)F)cc3)no2)CC1 [Compound 428, N-(3-(4-phenoxypiperidin-1-yl)propyl)-4-(3-(4-(trifluoromethoxy)phenyl)-1,2,4-oxadiazol-5-yl)piperazine-1-carboxamide]	+++ (+++ ≥6)
COc1ccc(-c2noc([C@H]3CC[C@H](C(=O)O)CC3)n2)cc1 [Compound 175, (1r,4r)-4-(3-(4-methoxyphenyl)-1,2,4-oxadiazol-5-yl)cyclohexane-1-carboxylic acid]	+ (+ >3 and <5)
COc1ccc(-c2noc(N3CCC(C(=O)NCC4CCN(Cc5ccccc5F)C4)CC3)n2)cc1 (centres unmarked) [Compound 358, N-((1-(2-fluorobenzyl)pyrrolidin-3-yl)methyl)-1-(3-(4-methoxyphenyl)-1,2,4-oxadiazol-5-yl)piperidine-4-carboxamide]	++ (++ ≥5 and <6)
COc1ccc(-c2noc(N3CCC(C(=O)NCC4CCN(Cc5cccc(C)n5)C4)CC3)n2)cc1 (centres unmarked) [Compound 387, 1-(3-(4-methoxyphenyl)-1,2,4-oxadiazol-5-yl)-N-((1-((6-methylpyridin-2-yl)methyl)pyrrolidin-3-yl)methyl)piperidine-4-carboxamide]	++ (++ ≥5 and <6)
COc1ccc(-c2noc(N3CCN(C(=O)N4CCN(C(C)=O)CC4)CC3)n2)cc1 [Compound 225, 1-(4-(4-(3-(4-methoxyphenyl)-1,2,4-oxadiazol-5-yl)piperazine-1-carbonyl)piperazin-1-yl)ethan-1-one]	− (− ≤3)
COc1ccc(-c2noc(N3CCC(C(=O)NCC4CCN(Cc5ccncc5F)C4)CC3)n2)cc1 (centres unmarked) [Compound 359, N-((1-((3-fluoropyridin-4-yl)methyl)pyrrolidin-3-yl)methyl)-1-(3-(4-methoxyphenyl)-1,2,4-oxadiazol-5-yl)piperidine-4-carboxamide]	++ (++ ≥5 and <6)
Cc1ccc(CN2CCC(CNC(=O)C3CCN(c4nc(-c5cccc(C#N)c5)no4)CC3)C2)cc1 (centres unmarked) [Compound 198, 1-(3-(3-cyanophenyl)-1,2,4-oxadiazol-5-yl)-N-((1-(4-methylbenzyl)pyrrolidin-3-yl)methyl)piperidine-4-carboxamide]	++ (++ ≥5 and <6)
COc1ccc(-c2noc(N3CCC(C(=O)NCC(C)(O)c4ccccc4)CC3)n2)cc1 (centres unmarked) [Compound 260, N-(2-hydroxy-2-phenylpropyl)-1-(3-(4-methoxyphenyl)-1,2,4-oxadiazol-5-yl)piperidine-4-carboxamide]	+ (+ >3 and <5)
COc1ccc(-c2noc(N3CCC(C(=O)Nc4ccccc4)CC3)n2)cc1 [Compound 143, 1-(3-(4-methoxyphenyl)-1,2,4-oxadiazol-5-yl)-N-phenylpiperidine-4-carboxamide]	++ (++ ≥5 and <6)
COc1ccc(-c2noc(N3CCC(C(=O)N[C@@H]4CC[C@H](O)C4)CC3)n2)cc1 [Compound 274, N-((1R,3S)-3-hydroxycyclopentyl)-1-(3-(4-methoxyphenyl)-1,2,4-oxadiazol-5-yl)piperidine-4-carboxamide]	+ (+ >3 and <5)
COc1ccc(-c2noc(N3CCC(C(=O)NCc4cncnc4)CC3)n2)cc1 [Compound 162, 1-(3-(4-methoxyphenyl)-1,2,4-oxadiazol-5-yl)-N-(pyrimidin-5-ylmethyl)piperidine-4-carboxamide]	+ (+ >3 and <5)
COc1cnc(-c2noc(N3CCC(C(=O)NCC4CCN(Cc5ccc(C)cc5)C4)CC3)n2)cn1 (centres unmarked) [Compound 233, 1-(3-(5-methoxypyrazin-2-yl)-1,2,4-oxadiazol-5-yl)-N-((1-(4-methylbenzyl)pyrrolidin-3-yl)methyl)piperidine-4-carboxamide]	+ (+ >3 and <5)
COc1ccc(-c2noc(C3CCC(C(=O)NCC4CC(=O)N(Cc5ccccc5)C4)CC3)n2)cc1 (centres unmarked) [Compound 177, (1r,4r)-N-((1-benzyl-5-oxopyrrolidin-3-yl)methyl)-4-(3-(4-methoxyphenyl)-1,2,4-oxadiazol-5-yl)cyclohexane-1-carboxamide]	++ (++ ≥5 and <6)
COc1ccc(-c2noc(N3CCC(C(=O)NCC4CCN(CC5CC5C)C4)CC3)n2)cc1 (centres unmarked) [Compound 368, 1-(3-(4-methoxyphenyl)-1,2,4-oxadiazol-5-yl)-N-((1-((2-methylcyclopropyl)methyl)pyrrolidin-3-yl)methyl)piperidine-4-carboxamide]	++ (++ ≥5 and <6)
COc1ccc(-c2noc(N3CCC(C(=O)NCC4CCN(Cc5scnc5C)C4)CC3)n2)cc1 (centres unmarked) [Compound 404, 1-(3-(4-methoxyphenyl)-1,2,4-oxadiazol-5-yl)-N-((1-((4-methylthiazol-5-yl)methyl)pyrrolidin-3-yl)methyl)piperidine-4-carboxamide]	++ (++ ≥5 and <6)
COc1ccc(-c2noc(N3CCN(C(=O)Nc4ccccc4Cl)CC3)n2)cc1 [Compound 195, N-(2-chlorophenyl)-4-(3-(4-methoxyphenyl)-1,2,4-oxadiazol-5-yl)piperazine-1-carboxamide]	+ (+ >3 and <5)
COc1ccc(-c2noc(N3CCC(C(=O)NCC4CCN(CC5CCCO5)C4)CC3)n2)cc1 (centres unmarked) [Compound 405, 1-(3-(4-methoxyphenyl)-1,2,4-oxadiazol-5-yl)-N-((1-((tetrahydrofuran-2-yl)methyl)pyrrolidin-3-yl)methyl)piperidine-4-carboxamide]	+ (+ >3 and <5)
COc1ccc(-c2noc(C3CCC(C(=O)NCC4CC(=O)N(C)C4)CC3)n2)cc1 (centres unmarked) [Compound 229, (1r,4r)-4-(3-(4-methoxyphenyl)-1,2,4-oxadiazol-5-yl)-N-((1-methyl-5-oxopyrrolidin-3-yl)methyl)cyclohexane-1-carboxamide]	+ (+ >3 and <5)
COc1ccc(-c2noc(N3CCC(C(=O)NCC4CCN(CC5CCCCC5)C4)CC3)n2)cc1 (centres unmarked) [Compound 338, N-((1-(cyclohexylmethyl)pyrrolidin-3-yl)methyl)-1-(3-(4-methoxyphenyl)-1,2,4-oxadiazol-5-yl)piperidine-4-carboxamide]	++ (++ ≥5 and <6)
COc1ccc(-c2noc(N3CCC(C(=O)NCc4cccc(OC)c4)CC3)n2)cc1 [Compound 121, N-(3-methoxybenzyl)-1-(3-(4-methoxyphenyl)-1,2,4-oxadiazol-5-yl)piperidine-4-carboxamide]	+ (+ >3 and <5)
COc1ccc(-c2noc(N3CCC(C(=O)NCCCN4CCN(C(=O)c5ccccc5)CC4)CC3)n2)cc1 [Compound 228, N-(3-(4-benzoylpiperazin-1-yl)propyl)-1-(3-(4-methoxyphenyl)-1,2,4-oxadiazol-5-yl)piperidine-4-carboxamide]	+ (+ >3 and <5)
N#Cc1ccc(-c2noc(N3CCC(C(=O)NCCCN4CCC(Cc5ccccc5)CC4)CC3)n2)cc1 [Compound 241, N-(3-(4-benzylpiperidin-1-yl)propyl)-1-(3-(4-cyanophenyl)-1,2,4-oxadiazol-5-yl)piperidine-4-carboxamide]	+++ (+++ ≥6)

Source: patent US12344600B2, “c-Myc mRNA translation modulators and uses thereof in the treatment of cancer” (Anima Biotech Inc., priority 2022, dated 2025)
